Test system: myosin heavy chain (MHC) IIb mRNA
Assay: Myosin heavy chain (MHC) IIb mRNA expression in masseter muscle by RT-PCR
Format: in vivo, rat
Details: masseter muscle of intact female rats; untreated control = 100%
From the text: MHC is the predominant protein in skeletal muscle encoded by a multigene family expressed in a tissue-specific and developmentally regulated manner [Adams et al 1999]. In steady state, mRNA expression usually parallels the pattern of MHC protein expression. Because transcription of MHC mRNA occurs in advance of MHC protein translation, and the increased sensitivity of RT-PCR compared to western blotting, rapid changes in mRNA expression can be detected and used to analyze the subtle dynamic effects of muscle anabolism [Wright et al 1997].
The masseter muscle dissected from untreated intact female rats was set as the control level (representing 100%) of MHC IIb expression (FIG. 7A). Intact female rats treated with androgens were evaluated against the untreated controls for the effect of treatment on MHC IIb from masseter.

CC(=O)Nc1ccc(OC[C@](C)(O)C(=O)Nc2ccc([N+](=O)[O-])c(C(F)(F)F)c2)cc1 [Compound VI]
MHC type IIb transcription, of untreated control: 137%
